From patent US20180228801A1, “Method for Enhancing Learning Ability and Memory of Patients with Alzheimer's Disease using Mocetinostat” (National Taiwan Normal University, priority 2017, published 2018)

What was measured:
Type in all cases: in vivo, mice (C57BL/6J)
[1] = tested on: mice with oligomeric Aβ25-35 injected into bilateral hippocampal CA1; experiment: Open Field Test; conditions: for time spent at the central area (anxiety): Aβ25-35 mice, vs Aβ25-35 alone
Description: (§1) Further, in some embodiments of the present invention, C57BL/6J strain male mice (12 week old) are used as a subject in need. After mice are allowed to adapt to the environment for 6 days, mice are anesthetized with Avertin (0.4 g/kg; purchased from Sigma). The mice are fixed on a stereotactic apparatus for operation, followed by injecting oligomeric Aβ25-35 (10 nM, 3 μL) into bilateral hippocampal CA1 (AP: […] relative to the bregma; ML: ±[…] relative to the midline; DV: […] relative to the skull) on day 7. MGCD0103 and equal volume of vehicle (saline) are intraperitoneal (i.p.) injected once a day from day 8, the day after said operation, for 29 days. On day 24, the Open Field Test is performed; on day 26, the EPM is performed; on day 28, the Y-maze is performed; on days 30 to 36, MWM is performed; and on day 37, mice are euthanized for pathological analysis.
In an embodiment, OFT is performed to said mice. The mice are placed in a central area of a white box (30 cm×30 cm×30 cm). Then, mice are allowed spontaneously walk for 10 minutes, and the time that mice spend at the central area (15 cm×15 cm×15 cm) in the first 5 minutes is recorded. Since mice tend to spend time at a peripheral area of an open field when anxious, observing the time spent in the central zone there by the mice will give an indication of the level of anxiety of the mice. In addition, counting the total distance that the mice have moved in the last 5 minutes may determine an index of spontaneous exercise ability of the mice. After finishing the test for each mouse, the box was wiped with 70% and 30% (v/v) of ethanol solution to remove remaining odor in order to avoid affecting other test results.

[2] = tested on: mice with oligomeric Aβ25-35 or saline injected into hippocampal CA1; experiment: Morris Water Maze memory test
Description: as §1
MWM is a test for observing spatial learning and memory of mice by placing a platform in a wide pool. […] The behavior of finding the platform relates to a complex memory process within the brain, including 1) collecting the visual information (such as shape information of rectangles, circles and triangles) with respect to spatial positioning, and 2) processing, sorting, memorizing, fixing and recalling said information. In particular, the mice are placed in a pool filled with milky white non-toxic advertising pigment (used to make the water become opaque to hide the platform so that the mice may not know the position of the platform at the beginning), and are allowed to explore in search of the platform (which is fixed in a predetermined quadrant) underwater. The test is split into several phases as follows: 1) exploration phase: Place the mouse in the water and leave it there for 1 minute. If the mouse cannot find the platform in time, then move the mouse to the platform and leave there for 20 seconds. Then, place the mouse at a dry location and allow to rest until the next experiment; 2) acceptance phase: place the mouse into the water maze at four specific positions in turn in order to test whether the mouse can find the platform or not. Such training is repeated four times a day and continued for 4 days (each mouse is trained a total of 16 times). After 4 days of training, the learning ability of the mouse is measured in testing. After 24 hours of last testing trial, platform was removed and the mouse to freely swim in the pool and observe whether the mouse remembers the position of the platform or not (long-term spatial memory test). The swimming path is recorded by a CCD camera and analyzed with an image tracking system (EthoVision-XT).

[3] = tested on: acetylated tissue proteins H3; experiment: Western blot, acetylated H3; conditions: chronic i.p. treatment, hippocampus
Description: as §1

pCDK = experiment: Western blot, pCDK; conditions: hippocampus
Description: as §1

pERK = experiment: Western blot, pERK; conditions: hippocampus
Description: as §1

[4] = tested on: IDE (Aβ degrading enzyme); experiment: Western blot, IDE; conditions: Aβ25-35 mice, hippocampus
Description: as §1

[5] = high dose 0.5 mg/kg i.p. once a day
[6] = saline-injected (normal) mice, high dose 0.5 mg/kg i.p.
[7] = saline-injected (normal) mice, low dose 0.01 mg/kg i.p.

time required to reach the platform, testing on day 5 ([2]; saline-injected (normal) mice treated with MGCD0103, dose not stated): significantly increased | learning curve, time required to reach the platform over 4 training days [2, 6]: does not significantly decrease | time spent at the target quadrant after removing the platform (long-term memory) [2, 6]: significantly decreased | learning curve, time required to reach the platform over 4 training days [2, 7]: does not significantly decrease | time spent at the target quadrant after removing the platform (long-term memory) [2, 7]: significantly decreased
SMILES: Nc1ccccc1NC(=O)c1ccc(CNc2nccc(-c3cccnc3)n2)cc1 [MGCD0103, N-(2-Aminophenyl)-4-[[(4-pyridin-3-ylpyrimidin-2-yl)amino]methyl] benzamide]
time spent at the central area (anxiety) [1, 5]: significantly increase | time spent at the central area (anxiety) ([1]; low dose 0.01 mg/kg i.p. once a day): significantly increase | total moving distance (spontaneous exercise ability) [1, 5]: does not influence | total moving distance (spontaneous exercise ability) ([1]; low dose 0.01 mg/kg i.p. once a day, vs group treated with saline): reduced | learning curve, time required to reach the platform over 4 training days ([2]; Aβ25-35 mice, high dose 0.5 mg/kg i.p.): reduced time required to reach the platform | time required to reach the platform, testing on day 5 ([2]; Aβ25-35 mice, high dose 0.5 mg/kg i.p., vs Aβ25-35 alone): significantly less | time spent at the target quadrant after removing the platform (long-term memory) ([2]; Aβ25-35 mice, high dose 0.5 mg/kg i.p., vs Aβ25-35 group without treatment): significantly increased | learning curve, time required to reach the platform over 4 training days ([2]; Aβ25-35 mice, low dose 0.01 mg/kg i.p.): reduced time required to reach the platform | time required to reach the platform, testing on day 5 ([2]; Aβ25-35 mice, low dose 0.01 mg/kg i.p., vs Aβ25-35 alone): significantly less | time spent at the target quadrant after removing the platform (long-term memory) ([2]; Aβ25-35 mice, low dose 0.01 mg/kg i.p., vs Aβ25-35 group without treatment): significantly increased | swimming velocity ([2]; all groups, low and high dose, saline or Aβ25-35 mice): same velocity | acetylation level of tissue proteins H3 [3]: significantly improve | expression of pCDK (pCDK): do not show difference | expression of pERK (pERK): do not show difference | expression of IDE protein [4]: significantly increased
